Results on 23 molecules are retold here after patent publication US10336701B2, “Pyridin-2-one derivatives of formula (II) useful as EP3 receptor antagonists” (Janssen Pharmaceutica NV, priority 2017, dated 2019).

Assay [1] deals with T1, EP3 receptor (Homo sapiens, UniProt P43115).
T1 construct: purchased Millipore HTS092M
T1 sequence (P43115 1-390): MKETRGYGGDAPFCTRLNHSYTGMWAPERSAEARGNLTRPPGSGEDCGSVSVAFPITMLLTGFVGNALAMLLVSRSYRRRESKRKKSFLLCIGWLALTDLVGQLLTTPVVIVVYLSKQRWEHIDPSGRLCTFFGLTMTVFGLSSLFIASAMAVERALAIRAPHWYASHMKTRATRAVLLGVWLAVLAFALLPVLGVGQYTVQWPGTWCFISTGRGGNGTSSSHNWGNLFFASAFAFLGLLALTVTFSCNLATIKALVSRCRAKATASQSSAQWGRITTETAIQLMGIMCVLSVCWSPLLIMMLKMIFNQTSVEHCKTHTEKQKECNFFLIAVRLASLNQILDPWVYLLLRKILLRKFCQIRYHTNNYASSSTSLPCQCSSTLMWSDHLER
Description: [3H]-PGE2 binding assay (EP3 competition binding). The settings on record: read-out: [3H]-PGE2 Binding Ki. Here is the method:
EP3 competition binding was determined using the following materials and experimental conditions:
Beads=Perkin Elmer RPNQ0001
EP3 membrane=Millipore HTS092M
Membrane concentration=2 μg/well
Beads concentration=0.25 mg/well
[3H]-PGE2=2 nM; DMSO—0.1%
Binding buffer=50 mM Tris, 10 mM MgCl2, 1 mM • EDTA, PH 7.4.
The binding buffer was removed from refrigeration (@ 4° C.) and allowed to warm to room temperature. Test compound (@ stock concentration of […] in DMSO) was serial dilutes (1:3) with 100% DMSO using Echo plate. Diluted test compound (30 nL) was dispensed to the 384-well assay plate (using Echo 550 Labcyte System). To each well was then added assay buffer (5 μl) and each well was spun. Beads were weighed out, dissolved in assay buffer to a concentration of 0.25 mg/15 μl. Original membrane was diluted with assay buffer to a concentration of 2 μg/5 μl. […] To each test well were then added diluted [3H]-PGE2 (5 μl), diluted membrane (5 μl), and dissolved beads (15 μl). The plate was equilibrated at room temperature on a plate shaker for 2 hours and then read with a TOPCOUNT scintillation plate reader. Results were analyzed using a Prism program with non-linear regression, one-site fit for Ki.

The target in assay [2] is T1, EP3 receptor. Description: CHO cell cAMP assay (forskolin and sulprostone stimulated, HTRF). Particulars: CHO cells; sulprostone 700 nM (EC80) and FSK 2 μM (EC70), 37° C. for 30 minutes; read-out: CHO_cAMP IC50. Format: cell-based. Here is the method: For detection, a homogeneous competitive immunoassay (Time Resolved Fluorescence Energy Transfer (hTR-FRET)) was used.
Cells (6K cells per well) were plated in Poly-D-Lysine coated plates the day before the assay was to be run and were incubated at 37° C. […] At the start of the assay the buffer was removed from the cells and replaced with buffer containing test compound(s). Sulprostone at an EC80 dose (700 nM) and FSK at an EC70 dose (2 μM) were added to initiate the reaction (37° C. for 30 minutes).
FSK increases cAMP production and sulprostone decreases cAMP production produced by FSK. In this assay, EP3 antagonists will increase the cAMP to the level of cAMP generated by FSK alone.
Approximately one hour later the plates were read on an Envision (Perkin Elmer) in HTRF mode.
NSP, NSN, NSsample were converted to nM cAMP using the following equation: […]
IC50 values were determined from a […] (Hill equation) of a single 11-point compound dosing.
Background: cAMP levels reflect the balance of adenylyl cyclase and phosphodiesterase activity.

Turning to `CCn1ncc2c(F)cc(-c3ccc(C4CCN(S(=O)(=O)C(C)C)C4)c(=O)[nH]3)cc21` (stereo not shown) [compound 213, 6-(1-ethyl-4-fluoro-1H-indazol-6-yl)-3-(1-(isopropylsulfonyl)pyrrolidin-3-yl)pyridin-2(1H)-one], the inhibitory constant (Ki) at EP3 receptor [1] amounted to 7 nM. In addition, on EP3 receptor [2], the half-maximal inhibitory concentration (IC50) was determined as 281 nM.
Take `CC(C)C(/C=C1\OC(=O)NC1=O)c1ccc(-c2ccc3cccc(C(F)(F)F)c3c2)[nH]c1=O` (stereo not shown) [compound 143, 5-(3-methyl-2-(2-oxo-6-(8-(trifluoromethyl)naphthalen-2-yl)-1,2-dihydropyridin-3-yl)butylidene)oxazolidine-2,4-dione]: on EP3 receptor [1], the Ki turned out to be 308 nM. Also, the IC50 on EP3 receptor [2] amounted to 734 nM.
On the same counts, the results for `CC(C)C(C(=O)NCCN(C)C)c1ccc(-c2ccc3scnc3c2)[nH]c1=O` (stereo not shown) [compound 243, 2-(6-(benzo[d]thiazol-5-yl)-2-oxo-1,2-dihydropyridin-3-yl)-N-(2-(dimethylamino)ethyl)-3-methylbutanamide] are 2600 nM and 14000 nM.
For `CC(C)C(F)(C(=O)NS(=O)(=O)c1cc(F)cc(F)c1)c1ccc(-c2ccc3cccc(F)c3c2)[nH]c1=O` (stereo not shown) [compound 173, N-((3,5-difluorophenyl)sulfonyl)-2-fluoro-2-(6-(8-fluoronaphthalen-2-yl)-2-oxo-1,2-dihydropyridin-3-yl)-3-methylbutanamide], at EP3 receptor [1], the Ki came to 153 nM. Also, at EP3 receptor [2], the 50% inhibitory concentration (IC50) came to 1300 nM.
As to `CCn1ncc2c(C)cc(-c3ccc(C(CC4OC(=O)NC4=O)C(C)C)c(=O)[nH]3)cc21` (stereo not shown) [compound 126, 5-(2-(6-(1-ethyl-4-methyl-1H-indazol-6-yl)-2-oxo-1,2-dihydropyridin-3-yl)-3-methylbutyl)oxazolidine-2,4-dione], the inhibition constant Ki at EP3 receptor [1] stood at 65 nM. In addition, the half-maximal inhibitory concentration (IC50) on EP3 receptor [2] came out at 382 nM.
On the same counts, the results for `CCn1ncc2c(F)cc(-c3ccc(C4CN(S(=O)(=O)C(C)C)C4)c(=O)[nH]3)cc21` [compound 214, 6-(1-ethyl-4-fluoro-1H-indazol-6-yl)-3-(1-(isopropylsulfonyl)azetidin-3-yl)pyridin-2(1H)-one] are greater than 10000 nM and greater than 20000 nM.
Consider `CC(C)C(Cc1ccc(-c2ccc3cccc(F)c3c2)[nH]c1=O)C1OC(=O)NC1=O` (stereo not shown) [Compound #308, 5-(1-(6-(8-fluoronaphthalen-2-yl)-2-oxo-1,2-dihydropyridin-3-yl)-3-methylbutan-2-yl)oxazolidine-2,4-dione], for which, at EP3 receptor [1], the inhibitory constant (Ki) is 46 nM. Besides, the IC50 at EP3 receptor [2] came to 210 nM.
In the same order, the values of `CCn1ncc2c(F)cc(-c3ccc(C(CC4OC(=O)NC4=O)C(C)C)c(=O)[nH]3)cc21` (stereo not shown) [compound 87, 5-(2-(6-(1-ethyl-4-fluoro-1H-indazol-6-yl)-2-oxo-1,2-dihydropyridin-3-yl)-3-methylbutyl)oxazoli-dine-2,4-dione] are 32 nM and 149 nM.
On the same counts, the results for `CCn1ncc2c(Cl)cc(-c3ccc(C(/C=C4\OC(=O)NC4=O)C(C)C)c(=O)[nH]3)cc21` (stereo not shown) [compound 116, (Z)-5-(2-(6-(4-chloro-1-ethyl-1H-indazol-6-yl)-2-oxo-1,2-dihydropyridin-3-yl)-3-methylbutylidene)oxazolidine-2,4-dione] are 8 nM and 76 nM.
On the same counts, the results for `COc1ccc2cc(-c3ccc(C(C(=O)NCCN(C)C)C(C)C)c(=O)[nH]3)ccc2c1` (stereo not shown) [compound 241] are 637 nM and 9630 nM.
Regarding `CC(C)C(/C=C1\OC(=O)NC1=O)c1ccc(-c2cc(F)c3cnn(C4CCCC4)c3c2)[nH]c1=O` (stereo not shown) [compound 124, (Z)-5-(2-(6-(1-cyclopentyl-4-fluoro-1H-indazol-6-yl)-2-oxo-1,2-dihydropyridin-3-yl)-3-methylbutylidene)oxazolidine-2,4-dione], the Ki at EP3 receptor [1] worked out at 202 nM. Also, the half-inhibitory concentration (IC50) at EP3 receptor [2] was determined as 19200 nM.
In the same order, the values of `O=c1[nH]c(-c2ccc3ccccc3c2)ccc1C1CCOCC1` [compound 192, 6-(naphthalen-2-yl)-3-(tetrahydro-2H-pyran-4-yl)pyridin-2(1H)-one] are 60 nM and 1330 nM.
In the same order, the values of `CCn1ncc2c(F)cc(-c3ccc(C(CC)(CC)c4noc(=O)[nH]4)c(=O)[nH]3)cc21` [Compound #4] are 88 nM and 1800 nM.
`CCn1cnc2c(F)c(-c3ccc(C(C=C4OC(=O)NC4=O)C(C)C)c(=O)[nH]3)ccc21` (stereo not shown) [compound 90, 5-(2-(6-(1-ethyl-4-fluoro-1H-benzo[d]imidazol-5-yl)-2-oxo-1,2-dihydropyridin-3-yl)-3-methylbutyli-dene)oxazolidine-2,4-dione]: the Ki at EP3 receptor [1] was 633 nM. Further, the IC50 on EP3 receptor [2] is 5430 nM.
On to `CCn1cnc2ccc(-c3ccc(C(C=C4OC(=O)NC4=O)C(C)C)c(=O)[nH]3)c(F)c21` (stereo not shown) [compound 91, 5-(2-(6-(3-ethyl-4-fluoro-3H-benzo[d]imidazol-5-yl)-2-oxo-1,2-dihydropyridin-3-yl)-3-methylbutylidene)oxazolidine-2,4-dione], for which the inhibition constant Ki at EP3 receptor [1] is greater than 10000 nM. Moreover, the IC50 at EP3 receptor [2] is greater than 20000 nM.
On the same counts, the results for `CCn1ncc2c(F)c(-c3ccc(C(/C=C4/OC(=O)NC4=O)(CC)CC)c(=O)[nH]3)ccc21` [compound 12, (E)-5-(2-ethyl-2-(6-(1-ethyl-4-fluoro-1H-indazol-5-yl)-2-oxo-1,2-dihydropyridin-3-yl)butylidene)oxazolidine-2,4-dione] are 1350 nM and greater than 20000 nM.
On the same counts, the results for `CCn1ncc2c(C)cc(-c3ccc(C(/C=C4\OC(=O)NC4=O)C(C)C)c(=O)[nH]3)cc21` (stereo not shown) [compound 106, (Z)-5-(2-(6-(1-ethyl-4-methyl-1H-indazol-6-yl)-2-oxo-1,2-dihydropyridin-3-yl)-3-methylbutylidene)oxazolidine-2,4-dione] are 50 nM and 555 nM.
As to `N#CC1(OC(N)=O)CCCC(c2ccc(-c3ccc4ccccc4c3)[nH]c2=O)C1` (stereo not shown) [compound 185, 1-cyano-3-(6-(naphthalen-2-yl)-2-oxo-1,2-dihydropyridin-3-yl)cyclohexyl carbamate], the inhibition constant (Ki) at EP3 receptor [1] came out at 31 nM. In addition, on EP3 receptor [2], the IC50 worked out at 314 nM.
In the same order, the values of `CC(C)C(O)(CC(N)=O)c1ccc(-c2ccc3cccc(F)c3c2)[nH]c1=O` (stereo not shown) [compound 255, 3-(6-(8-fluoronaphthalen-2-yl)-2-oxo-1,2-dihydropyridin-3-yl)-3-hydroxy-4-methylpentanamide] are 9 nM and 115 nM.
In the same order, the values of `CCN1CCOc2ccc(-c3ccc(C(c4noc(=O)[nH]4)C(C)C)c(=O)[nH]3)cc21` (stereo not shown) [Compound #278, 3-(1-(6-(4-ethyl-3,4-dihydro-2H-benzo[b][1,4]oxazin-6-yl)-2-oxo-1,2-dihydropyridin-3-yl)-2-methylpropyl)-1,2,4-oxadiazol-5(4H)-one] are 368 nM and 591 nM.
On the same counts, the results for `CC(C)C(NS(=O)(=O)C1CCCCC1)c1ccc(-c2ccc3cccc(F)c3c2)[nH]c1=O` (stereo not shown) [Compound #165, N-(1-(6-(8-fluoronaphthalen-2-yl)-2-oxo-1,2-dihydropyridin-3-yl)-2-methylpropyl)cyclohexanesulfonamide] are 31 nM and 250 nM.
With `CC(C)C(C(=O)NC1CCSCC1)c1ccc(-c2ccc3cccc(F)c3c2)[nH]c1=O` (stereo not shown) [compound 183, 2-(6-(8-fluoronaphthalen-2-yl)-2-oxo-1,2-dihydropyridin-3-yl)-3-methyl-N-(tetrahydro-2H-thiopyran-4-yl)butanamide], the Ki at EP3 receptor [1] worked out at 3 nM. For the same molecule, the IC50 on EP3 receptor [2] was 1 nM.
In the same order, the values of `CC(C)C(C(=O)NCCOCCN(C)C)c1ccc(-c2ccc3cccc(F)c3c2)[nH]c1=O` (stereo not shown) [compound 233, N-(2-(2-(dimethylamino)ethoxy)ethyl)-2-(6-(8-fluoronaphthalen-2-yl)-2-oxo-1,2-dihydropyridin-3-yl)-3-methylbutanamide] are 15 nM and 325 nM.

Usually Ki stands for the equilibrium dissociation constant of an inhibitor or competing ligand from its target. For orientation: IC50 means the point on the concentration scale where inhibition reaches its midpoint.
